From ChEMBL document CHEMBL3885881, “DrugMatrix”

Species: Rattus norvegicus
Assay: DrugMatrix - Regimen: Daily Repeat
Type: toxicity, organism-based, Sprague-Dawley
Parameters: regimen Daily Repeat, gender Male, age 6-8 weeks
Details: in vivo, po, route oral GAVAGE, vehicle .5 % CMC; for ABSOLUTE BASOPHIL / ABSOLUTE EOSINOPHIL / ABSOLUTE LYMPHOCYTE / ABSOLUTE MONOCYTE / ABSOLUTE SEGMENTED NEUTROPHIL / BASOPHIL / EOSINOPHIL / ERYTHROCYTE COUNT / HEMATOCRIT / HEMOGLOBIN / LEUKOCYTE COUNT / LYMPHOCYTE / MEAN CORPUSCULAR HEMOGLOBIN / MEAN CORPUSCULAR HEMOGLOBIN CONCENTRATION / MEAN CORPUSCULAR VOLUME / MONOCYTE / NEUTROPHIL / NUCLEATED RED BLOOD CELLS / PLATELET COUNT: tissue Blood; for ALANINE AMINOTRANSFERASE / ALBUMIN / ALKALINE PHOSPHATASE / ASPARTATE AMINOTRANSFERASE / BLOOD UREA NITROGEN / CARBON DIOXIDE / CHLORIDE / CHOLESTEROL / CREATINE PHOSPHOKINASE / CREATININE / GLUCOSE / LACTATE DEHYDROGENASE / LIPASE / PHOSPHORUS / POTASSIUM / SODIUM / TOTAL BILIRUBIN / TOTAL PROTEIN / URIC ACID: tissue Plasma
[1] = 25 mg/kg, 72 h, dose level Low, time 3 day
[2] = 25 mg/kg, 120 h, dose level Low, time 5 day
[3] = 1500 mg/kg, 72 h, dose level High, time 3 day
[4] = 1500 mg/kg, 120 h, dose level High, time 5 day

COC(=O)Nc1nc2ccc([S+]([O-])c3ccccc3)cc2[nH]1 (configuration not stated) [OXFENDAZOLE]
ABSOLUTE BASOPHIL [1]: 0 CELLS/uL
ABSOLUTE EOSINOPHIL [1]: 48 CELLS/uL
ABSOLUTE LYMPHOCYTE [1]: 11822 CELLS/uL
ABSOLUTE MONOCYTE [1]: 187.33 CELLS/uL
ABSOLUTE SEGMENTED NEUTROPHIL [1]: 2342.67 CELLS/uL
BASOPHIL [1]: 0%
EOSINOPHIL [1]: 0.33%
ERYTHROCYTE COUNT [1]: 6.05 x10E6/uL
HEMATOCRIT [1]: 36.2%
HEMOGLOBIN [1]: 13.87 G/DL
LEUKOCYTE COUNT [1]: 14.4 x10E3/uL
LYMPHOCYTE [1]: 82%
MEAN CORPUSCULAR HEMOGLOBIN [1]: 22.93 pg
MEAN CORPUSCULAR HEMOGLOBIN CONCENTRATION [1]: 38.33 G/DL
MEAN CORPUSCULAR VOLUME [1]: 59.8 fL
MONOCYTE [1]: 1.33%
NEUTROPHIL [1]: 16.33%
NUCLEATED RED BLOOD CELLS [1]: 0 /100WBC
PLATELET COUNT [1]: 1268.67 x10E3/uL
ALANINE AMINOTRANSFERASE [1]: 56 u/L
ALBUMIN [1]: 4.13 G/DL
ALKALINE PHOSPHATASE [1]: 355 u/L
ASPARTATE AMINOTRANSFERASE [1]: 78.67 u/L
BLOOD UREA NITROGEN [1]: 14 mg/dL
CARBON DIOXIDE [1]: 25 mmol/L
CHLORIDE [1]: 99 MEQ/L
CHOLESTEROL [1]: 78.67 mg/dL
CREATINE PHOSPHOKINASE [1]: 173.33 u/L
CREATININE [1]: 0.15 mg/dL
GLUCOSE [1]: 161.67 mg/dL
LACTATE DEHYDROGENASE [1]: 153 u/L
LIPASE [1]: 10 u/L
PHOSPHORUS [1]: 13.1 mg/dL
POTASSIUM [1]: 8.18 MEQ/L
SODIUM [1]: 142.9 MEQ/L
TOTAL BILIRUBIN [1]: 0.2 mg/dL
TOTAL PROTEIN [1]: 5.77 G/DL
URIC ACID [1]: 2.07 mg/dL
ABSOLUTE BASOPHIL [2]: 0 CELLS/uL
ABSOLUTE EOSINOPHIL [2]: 0 CELLS/uL
ABSOLUTE LYMPHOCYTE [2]: 12550 CELLS/uL
ABSOLUTE MONOCYTE [2]: 0 CELLS/uL
ABSOLUTE SEGMENTED NEUTROPHIL [2]: 983.33 CELLS/uL
BASOPHIL [2]: 0%
EOSINOPHIL [2]: 0%
ERYTHROCYTE COUNT [2]: 5.35 x10E6/uL
HEMATOCRIT [2]: 31.93%
HEMOGLOBIN [2]: 12.77 G/DL
LEUKOCYTE COUNT [2]: 13.53 x10E3/uL
LYMPHOCYTE [2]: 93%
MEAN CORPUSCULAR HEMOGLOBIN [2]: 23.9 pg
MEAN CORPUSCULAR HEMOGLOBIN CONCENTRATION [2]: 40 G/DL
MEAN CORPUSCULAR VOLUME [2]: 59.73 fL
MONOCYTE [2]: 0%
NEUTROPHIL [2]: 7%
NUCLEATED RED BLOOD CELLS [2]: 0 /100WBC
PLATELET COUNT [2]: 856.67 x10E3/uL
ALANINE AMINOTRANSFERASE [2]: 57.67 u/L
ALBUMIN [2]: 4.17 G/DL
ALKALINE PHOSPHATASE [2]: 330.67 u/L
ASPARTATE AMINOTRANSFERASE [2]: 89 u/L
BLOOD UREA NITROGEN [2]: 16 mg/dL
CARBON DIOXIDE [2]: 24 mmol/L
CHLORIDE [2]: 100.67 MEQ/L
CHOLESTEROL [2]: 74 mg/dL
CREATINE PHOSPHOKINASE [2]: 346.33 u/L
CREATININE [2]: 0.21 mg/dL
GLUCOSE [2]: 161.67 mg/dL
LACTATE DEHYDROGENASE [2]: 356.67 u/L
LIPASE [2]: 9 u/L
PHOSPHORUS [2]: 12.83 mg/dL
POTASSIUM [2]: 7.04 MEQ/L
SODIUM [2]: 141.83 MEQ/L
TOTAL BILIRUBIN [2]: 0.2 mg/dL
TOTAL PROTEIN [2]: 5.9 G/DL
URIC ACID [2]: 2.33 mg/dL
ABSOLUTE BASOPHIL [3]: 0 CELLS/uL
ABSOLUTE EOSINOPHIL [3]: 0 CELLS/uL
ABSOLUTE LYMPHOCYTE [3]: 9253.67 CELLS/uL
ABSOLUTE MONOCYTE [3]: 174.67 CELLS/uL
ABSOLUTE SEGMENTED NEUTROPHIL [3]: 671.67 CELLS/uL
BASOPHIL [3]: 0%
EOSINOPHIL [3]: 0%
ERYTHROCYTE COUNT [3]: 5.79 x10E6/uL
HEMATOCRIT [3]: 34.2%
HEMOGLOBIN [3]: 13.37 G/DL
LEUKOCYTE COUNT [3]: 10.1 x10E3/uL
LYMPHOCYTE [3]: 91.67%
MEAN CORPUSCULAR HEMOGLOBIN [3]: 23.07 pg
MEAN CORPUSCULAR HEMOGLOBIN CONCENTRATION [3]: 39.1 G/DL
MEAN CORPUSCULAR VOLUME [3]: 59.03 fL
MONOCYTE [3]: 1.67%
NEUTROPHIL [3]: 6.67%
NUCLEATED RED BLOOD CELLS [3]: 0 /100WBC
PLATELET COUNT [3]: 1138.67 x10E3/uL
ALANINE AMINOTRANSFERASE [3]: 42.33 u/L
ALBUMIN [3]: 4 G/DL
ALKALINE PHOSPHATASE [3]: 328.67 u/L
ASPARTATE AMINOTRANSFERASE [3]: 70.33 u/L
BLOOD UREA NITROGEN [3]: 15.33 mg/dL
CARBON DIOXIDE [3]: 27.33 mmol/L
CHLORIDE [3]: 100.33 MEQ/L
CHOLESTEROL [3]: 67.67 mg/dL
CREATINE PHOSPHOKINASE [3]: 217.33 u/L
CREATININE [3]: 0.17 mg/dL
GLUCOSE [3]: 160.33 mg/dL
LACTATE DEHYDROGENASE [3]: 90 u/L
LIPASE [3]: 9.67 u/L
PHOSPHORUS [3]: 11.6 mg/dL
POTASSIUM [3]: 6.25 MEQ/L
SODIUM [3]: 142.17 MEQ/L
TOTAL BILIRUBIN [3]: 0.1 mg/dL
TOTAL PROTEIN [3]: 5.43 G/DL
URIC ACID [3]: 1.83 mg/dL
ABSOLUTE BASOPHIL [4]: 0 CELLS/uL
ABSOLUTE EOSINOPHIL [4]: 0 CELLS/uL
ABSOLUTE LYMPHOCYTE [4]: 9784.67 CELLS/uL
ABSOLUTE MONOCYTE [4]: 35.33 CELLS/uL
ABSOLUTE SEGMENTED NEUTROPHIL [4]: 380 CELLS/uL
BASOPHIL [4]: 0%
EOSINOPHIL [4]: 0%
ERYTHROCYTE COUNT [4]: 5.39 x10E6/uL
HEMATOCRIT [4]: 32.9%
HEMOGLOBIN [4]: 13.2 G/DL
LEUKOCYTE COUNT [4]: 10.2 x10E3/uL
LYMPHOCYTE [4]: 95.67%
MEAN CORPUSCULAR HEMOGLOBIN [4]: 24.53 pg
MEAN CORPUSCULAR HEMOGLOBIN CONCENTRATION [4]: 40.13 G/DL
MEAN CORPUSCULAR VOLUME [4]: 61.07 fL
MONOCYTE [4]: 0.33%
NEUTROPHIL [4]: 4%
NUCLEATED RED BLOOD CELLS [4]: 0 /100WBC
PLATELET COUNT [4]: 1442.33 x10E3/uL
ALANINE AMINOTRANSFERASE [4]: 41 u/L
ALBUMIN [4]: 4.17 G/DL
ALKALINE PHOSPHATASE [4]: 331.33 u/L
ASPARTATE AMINOTRANSFERASE [4]: 79.67 u/L
BLOOD UREA NITROGEN [4]: 15.33 mg/dL
CARBON DIOXIDE [4]: 27.67 mmol/L
CHLORIDE [4]: 101.67 MEQ/L
CHOLESTEROL [4]: 69.67 mg/dL
CREATINE PHOSPHOKINASE [4]: 228 u/L
CREATININE [4]: 0.16 mg/dL
GLUCOSE [4]: 143 mg/dL
LACTATE DEHYDROGENASE [4]: 165 u/L
LIPASE [4]: 9.33 u/L
PHOSPHORUS [4]: 13.13 mg/dL
POTASSIUM [4]: 6.91 MEQ/L
SODIUM [4]: 146.13 MEQ/L
TOTAL BILIRUBIN [4]: 0.13 mg/dL
TOTAL PROTEIN [4]: 5.77 G/DL
URIC ACID [4]: 1.7 mg/dL
